Earlier results, collected in US20050009005A1, “Methods of using quantitative lipid metabolome data” (Lipomics Technologies, Inc., priority 2001, published 2005).

Settings: patients taking rosiglitazone; Fuchtenbebusch et al. 2000; cited from earlier work

SMILES: CN(CCOc1ccc(CC2SC(=O)NC2=O)cc1)c1ccccn1 (stereo not shown) [rosiglitazone]
- body weight of patients: gain weight
